The test system of data set [1] is P-388 leukemia cells. Description: Antitumor activity: P-388 leukemia cells inoculated intraperitoneally, drug administered intravenously, BDF1 mice. Conditions: BDF1 mice, P-388 i.p.; for response vs control in vivo at 40 mg/kg / response vs control in vivo at 20 mg/kg / response vs control in vivo at 80 mg/kg: Mus musculus, P388, iv, read-out: T/C (%) of MST; for response vs control in vivo at 20 mg/kg: dose b: 20 mg/kg × 3, i.v. on days 1, 5 and 9; for response vs control in vivo at 80 mg/kg: dose f: 80 mg/kg × 3, i.v. on days 1, 5 and 9. The format is in vivo. In a few lines: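 Drug dosing was intravenous on the first, fifth and ninth days after intraperitoneal inoculation of P-388 leukemia cells (1×10^6 per mouse) into BDF1 mice. Vehicles were physiological saline alone, or saline with small amounts of sodium carboxymethyl cellulose or Tween-80.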

Data set [2] in a line: Acute toxicity, intravenous (once), ddY mice. The format is in vivo. Conditions: mouse, in vivo, iv, formulated per Preparation Example. From the text: In Table 7 are shown acute toxicity values (LD50, mg/kg) in ddY mice in the case of intravenously administering (once) each of the compounds of this invention in the form of preparations shown in the Preparation Examples shown in Table 7.

The mark [3] stands for this setting: dose c: 40 mg/kg × 3, i.v. on days 1, 5 and 9.

Where a name gives a salt, the structure may show the parent alone.

Broadly, the LD50 is the dose at which mortality reaches 50%. For `COC1C(O)C(C)OC(OC2C(Oc3cccc4c(OC(=O)CCCCCNC(=O)OCc5ccccc5)c5c(=O)oc6ccc(C)c7c(=O)oc(c34)c5c67)OC(C)C3OC(c4ccccc4)OC32)C1O` (stereo not shown) [compound 119], the “T/C (%) of MST” value in data set [1] (setting [3]) was found to be 153%. In addition, the LD50 in data set [2] is at least 40 mg/kg.

With `COC1C(O)C(C)OC(OC2C(Oc3cccc4c(OC(=O)CCNC=O)c5c(=O)oc6ccc(C)c7c(=O)oc(c34)c5c67)OC(C)C3OC(c4cccc([N+](=O)[O-])c4)OC32)C1O` (stereo not shown) [compound 120], in data set [1] (setting [3]), the response vs control in vivo at 40 mg/kg worked out at 148%. This compound also registered an LD50 in data set [2] of at least 40 mg/kg.

For `COC1C(O)C(C)OC(OC2C(Oc3cccc4c(OC(=O)CCNC(C)=O)c5c(=O)oc6ccc(C)c7c(=O)oc(c34)c5c67)OC(C)C3OC(c4ccccc4)OC32)C1O` (stereo not shown) [Compound No. 38], in data set [1], the response vs control in vivo at 20 mg/kg stood at 203%. The compound further returned an LD50 in data set [2] of at least 40 mg/kg.

As for `CCN(CC)CCC(=O)Oc1c2cccc(OC3OC(C)C4OC(c5ccccc5)OC4C3OC3OC(C)C(O)C(OC)C3O)c2c2oc(=O)c3c(C)ccc4oc(=O)c1c2c43` (stereo not drawn) [Compound No. 8, 6-O-(N,N-Diethyl-β-Alanyl)-3',4'-O-Benzylidene-Chartreusin Hydrochloride], in data set [1], the response vs control in vivo at 20 mg/kg amounted to 186%. Besides, the response vs control in vivo at 40 mg/kg in data set [1] (setting [3]) is 220%. The LD50 in data set [2] was at least 40 mg/kg.

With `COC1C(O)C(C)OC(OC2C(Oc3cccc4c(OC(=O)CN(C)C(=O)C(F)(F)F)c5c(=O)oc6ccc(C)c7c(=O)oc(c34)c5c67)OC(C)C3OC(c4ccccc4F)OC32)C1O` (stereo not shown) [compound 82], the response vs control in vivo at 40 mg/kg in data set [1] (setting [3]) is 148%. Also, in data set [1], the response vs control in vivo at 80 mg/kg was 205%. This compound yielded an LD50 in data set [2] of at least 80 mg/kg.

For `C/C=C(\C)C(=O)Oc1c2cccc(OC3OC(C)C4OC(c5cccc(C(F)(F)F)c5)OC4C3OC3OC(C)C(O)C(OC)C3O)c2c2oc(=O)c3c(C)ccc4oc(=O)c1c2c43` (stereo not drawn) [Compound No. 161, 6-O-(Trans-2-Methyl-2-Butenoyl)-3',4'-O-(m-Trifluoromethylbenzylidene)Chartreusin], the response vs control in vivo at 40 mg/kg in data set [1] (setting [3]) amounted to 169%. Besides, the response vs control in vivo at 80 mg/kg in data set [1] came to 234%. Moreover, the LD50 in data set [2] is at least 80 mg/kg.

With `COC1C(O)C(C)OC(OC2C(Oc3cccc4c(OC(=O)CCCCCCCNC(=O)C(F)(F)F)c5c(=O)oc6ccc(C)c7c(=O)oc(c34)c5c67)OC(C)C3OC(C)(C)OC32)C1O` (stereo not shown) [compound 99], the response vs control in vivo at 80 mg/kg in data set [1] stood at 136%. The same compound yielded a 50% lethal dose (LD50) in data set [2] of at least 100 mg/kg.

Take `COC(=O)CCC(=O)Oc1c2cccc(O[C@@H]3O[C@H](C)[C@@H]4OC(C)(C)O[C@@H]4[C@H]3O[C@H]3O[C@H](C)[C@H](O)[C@H](OC)[C@H]3O)c2c2oc(=O)c3c(C)ccc4oc(=O)c1c2c43` [compound 202]: the response vs control in vivo at 40 mg/kg in data set [1] (setting [3]) stood at 174%. The compound also displayed an LD50 in data set [2] of at least 60 mg/kg.

For `CO[C@H]1[C@@H](O)[C@@H](C)O[C@H](O[C@H]2[C@H](Oc3cccc4c(OC(=O)CCCCl)c5c(=O)oc6ccc(C)c7c(=O)oc(c34)c5c67)O[C@H](C)[C@@H]3OC(c4ccccc4)O[C@@H]32)[C@@H]1O` (stereo partly shown) [compound 214], the response vs control in vivo at 40 mg/kg in data set [1] (setting [3]) came to 130%. Further, in data set [1], the response vs control in vivo at 80 mg/kg turned out to be 198%. Further, the LD50 in data set [2] is at least 80 mg/kg.

As to `COC1C(O)C(C)OC(OC2C(Oc3cccc4c(OC(=O)CC(C)C)c5c(=O)oc6ccc(C)c7c(=O)oc(c34)c5c67)OC(C)C3OC(c4ccc(F)cc4)OC32)C1O` (stereo not shown) [Compound No. 159], the response vs control in vivo at 40 mg/kg in data set [1] (setting [3]) turned out to be 171%. Further, the response vs control in vivo at 80 mg/kg in data set [1] amounted to 216%. In data set [2], this compound displayed an LD50 of at least 40 mg/kg.

As for `CO[C@H]1[C@@H](O)[C@@H](C)O[C@H](O[C@H]2[C@H](Oc3cccc4c(OC(=O)c5ccc(Br)cc5)c5c(=O)oc6ccc(C)c7c(=O)oc(c34)c5c67)O[C@H](C)[C@@H]3OC(C)(C)O[C@@H]32)[C@@H]1O` [Compound No. 179], the response vs control in vivo at 40 mg/kg in data set [1] (setting [3]) came to 136%. Also, in data set [1], the response vs control in vivo at 80 mg/kg turned out to be 208%. The LD50 in data set [2] was at least 80 mg/kg.

Source of the values: patent US4760136A, “Chartreusin derivatives and salts thereof” (Ishihara Sangyo Kaisha, Ltd., priority 1984, dated 1988).
